Drawing on patent publication US9770026B2, “Substituted pyrimidine compound and uses thereof” (Shenyang Sinochem Agrochemicals R&D Co., Ltd., priority 2012, dated 2017), this text covers inhibition and pest or weed control for three compounds.

The subject of assay [1] is rice blast. The assay can be described thus: microbe, parasite or virus in culture. In kind it is cell-based. The conditions noted are these: Pyricularia oryzae; for inhibition at 25 ppm: read-out: inhibition rate against rice blast, 25 ppm, in vitro.
Assay [2] relates to cucumber gray mold. Nature of the assay: fungicidal activity in vitro (inhibition rate) against cucumber gray mold. Format: cell-based. The conditions noted are these: 25 ppm, in vitro; read-out: inhibition rate against cucumber gray mold.
Assay [3] has as its system armyworm. Nature of the assay: bioactivity test against armyworm, airbrush spray. The conditions noted are these: 72 h. In kind it is in vivo.
For assay [4], the system named is corn rust. Nature of the assay: protectant activity in vivo against corn rust. As to conditions: Zea mays, 168 h.
In assay [5] the test system is wheat powdery mildew. The assay can be described thus: protectant activity in vivo against wheat powdery mildew. As to conditions: Triticum aestivum, 168 h; for pest or weed control at 6.25 µg/mL: read-out: control effect against wheat powdery mildew (%), 6.25 mg/L; for pest or weed control at 25 µg/mL: read-out: control effect against wheat powdery mildew (%), 25 mg/L; for pest or weed control at 100 µg/mL: read-out: control effect against wheat powdery mildew (%), 100 mg/L; for pest or weed control at 400 µg/mL: read-out: control effect against wheat powdery mildew (%), 400 mg/L.

Assay [6] deals with cucumber downy mildew. The assay can be described thus: protectant activity in vivo against cucumber downy mildew. As to conditions: Cucumis sativus, 168 h, protectant activity.
For assay [7], the system named is Green peach aphids (Myzus Persicae Sulzer). Nature of the assay: bioactivity test against green peach aphid, airbrush foliar spray. In kind it is in vivo. The conditions noted are these: Myzus persicae, foliar, 48 h, death rate after 48 hrs. The essentials: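 Death rate was scored at 48 hrs, held at 25±1 C and 60±5% RH, following airbrush foliar spray (0.5 mL, 10 psi) onto cabbage leaf discs bearing about 15-30 aphids. Test solutions: compound dissolved in 1:1 acetone:methanol, brought to concentration with 0.1% tween 80 water.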

The test system of assay [8] is carmine spider mite. Nature of the assay: bioactivity test against carmine spider mite, airbrush spray. In kind it is in vivo. The conditions noted are these: Tetranychus cinnabarinus, 72 h, mortality after 72 hrs. Summed up:
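Broadbean seedlings infested with adult mites were sprayed with compound (acetone/methanol stock diluted in 0.1% Tween 80 water) by airbrush at 0.7 kg/cm^2, 0.5 ml. Three replicates were run. Mortality was scored after 72 hrs.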

In general, inhibition refers to the change of the read-out against control, counted positive when it falls.

With `CCc1ncnc(NC(C)c2ccc(Oc3ccc(C(F)(F)F)cc3)cc2)c1Cl` (stereo not drawn) [CK47, reference compound], the inhibition at 8.3 ppm in assay [1] (read-out: inhibition rate against rice blast, 8.3 ppm, in vitro) is 0%. In addition, the values for the inhibition at 25 ppm in assay [1] and in assay [2] were less than 50% and 0%, respectively. Moreover, the pest or weed control at 10 µg/mL in assay [3] (10 mg/L, read-out: Insecticidal activity against armyworm (%)) is 0%. In addition, the pest or weed control at 100 µg/mL in assay [3] (100 mg/L, read-out: Insecticidal activity against armyworm (%)) came out at 25%; in assay [4] (read-out: control effect against corn rust (%), 100 mg/L, protectant activity), 30%. For the same compound, the pest or weed control at 600 µg/mL in assay [3] (600 mg/L, read-out: Insecticidal activity against armyworm (%)) was found to be 86%. Besides, the pest or weed control at 6.25 µg/mL in assay [4] (read-out: control effect against corn rust (%), 6.25 mg/L, protectant activity) came to 0%. Besides, the pest or weed control at 25 µg/mL in assay [4] (read-out: control effect against corn rust (%), 25 mg/L, protectant activity) stood at 0%. In addition, the pest or weed control at 400 µg/mL in assay [4] (read-out: control effect against corn rust (%), 400 mg/L, protectant activity) was 80%.
Take `CC(F)c1ncnc(NCCc2ccc(Oc3ccc(C(F)(F)F)cc3)cc2)c1Cl` (stereo not drawn) [CK1, reference compound]: the inhibition at 25 ppm in assay [1] and in assay [2] was 0% in each case. The pest or weed control at 6.25 µg/mL in assay [5] (protectant activity) amounted to 80%; in assay [6] (read-out: control effect against cucumber downy mildew (%), 6.25 mg/L), 30%. Further, the pest or weed control at 25 µg/mL in assay [5] (protectant activity) is 100%; in assay [6] (read-out: control effect against cucumber downy mildew (%), 25 mg/L), 100%. Besides, the pest or weed control at 100 µg/mL in assay [5] (protectant activity) turned out to be 100%; in assay [6] (read-out: control effect against cucumber downy mildew (%), 100 mg/L) it was 100%. Further, the pest or weed control at 400 µg/mL in assay [5] (protectant activity) is 100%; in assay [6] (read-out: control effect against cucumber downy mildew (%), 400 mg/L), 100%. In addition, in assay [6] (read-out: control effect against cucumber downy mildew (%), 3.125 mg/L), the pest or weed control at 3.125 µg/mL was 20%. Besides, the pest or weed control at 12.5 µg/mL in assay [6] (read-out: control effect against cucumber downy mildew (%), 12.5 mg/L) came to 50%. Besides, the pest or weed control at 50 µg/mL in assay [6] (read-out: control effect against cucumber downy mildew (%), 50 mg/L) came to 100%.
With `FC(F)c1ncnc(NCCc2ccc(Oc3ccc(C(F)(F)F)cn3)cc2)c1Cl` [Compound I-2342], the values for the inhibition at 25 ppm in assay [1] and in assay [2] were 80 to 99% and 100%, respectively. Besides, the pest or weed control at 600 ppm in assay [3] (600 ppm, mortality after 72 h) was found to be 100%; in assay [7] (600 ppm), 100%; in assay [8] (600 ppm) it was 100%. The compound further returned a pest or weed control at 10 ppm in assay [7] (10 ppm) of 100%. Besides, the pest or weed control at 100 ppm came to 100% in assay [7] (100 ppm); 100% in assay [8] (100 ppm); 100% in assay [4] (read-out: protectant activity against corn rust in vivo, 100 ppm); 100% in assay [5] (read-out: protectant activity against wheat powdery mildew in vivo, 100 ppm). The pest or weed control at 6.25 ppm is 100% in assay [4] (read-out: protectant activity against corn rust in vivo, 6.25 ppm) and 100% in assay [5] (read-out: protectant activity against wheat powdery mildew in vivo, 6.25 ppm). Also, the pest or weed control at 25 ppm was found to be 100% in assay [4] (read-out: protectant activity against corn rust in vivo, 25 ppm) and 100% in assay [5] (read-out: protectant activity against wheat powdery mildew in vivo, 25 ppm). The pest or weed control at 400 ppm in assay [4] (read-out: protectant activity against corn rust in vivo, 400 ppm) is 100%; in assay [5] (read-out: protectant activity against wheat powdery mildew in vivo, 400 ppm), 100%. Moreover, the pest or weed control at 0.4 µg/mL in assay [5] (read-out: control effect against wheat powdery mildew (%), 0.4 mg/L, protectant activity) came to 60%. Besides, the pest or weed control at 1.6 µg/mL in assay [5] (read-out: control effect against wheat powdery mildew (%), 1.6 mg/L, protectant activity) turned out to be 95%. Further, the pest or weed control at 6.25 µg/mL in assay [5] (protectant activity) was 100%. Also, the pest or weed control at 25 µg/mL in assay [5] (protectant activity) came out at 100%. Further, the pest or weed control at 100 µg/mL in assay [5] (protectant activity) worked out at 100%. Also, the pest or weed control at 400 µg/mL in assay [5] (protectant activity) is 100%.
